In paper PMC10447463, “Data-mining unveils structure–property–activity correlation of viral infectivity enhancing self-assembling peptides” (Nature Communications, 2023):

How the values were obtained:
[1] = type: physicochemical; design: key to Fibril / Fibril Formation / TEM 2cat / Fibril: 1 = fibrils present; 0 non-fibrillar structures; details: for Fibril / Fibril Formation: TEM, 1 mg/mL, uranyl acetate stain, qualitative
[2] = Turbidity, derived count rate of scattered light; type: physicochemical; details: for Count Rate / kcps: derived count rate of scattered light at 633 nm, 173°, from zeta-potential measurement, 0.1 mg/mL in 1 mM KCl after 1 d at 1 mg/mL in PBS, turbidity / microscopic aggregation, mean of triplicate
In short: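 One-day room-temperature aggregation at 1 mg/mL in PBS (pH 7.4) preceded measurement; samples then went into 1 mM KCl. Triplicates per sample, two independent experiments averaged.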

Substance	Fibril / Fibril Formation [1]	Count Rate / kcps [2] [kcps]	TEM: 1= fibrils, 0= aggregates (micelle), 0.5 = aggregates and fibrils, -1 = nothing obersved, STD prep ([1]; STD prep)	Zeta Count Rate Category ([2]; category 1 / 0, no key given)	Zeta Count Rate / kcps ([2]; derived count rate of scattered light) [kcps]
VQIVYK [reference compound]	0	26			
RCELARTLKR [reference compound]	0	78			
GAITIG-NH2 [reference compound]	0	30			
DFNKF [reference compound]	1	1065			
VLYVGSKT [reference compound]	0	24			
GQTVTK [reference compound]	0	34			
RIRIQIC [PS07]			1	1	191.1
GNNQQNY [reference compound]	0	37			
NSGAITIG-NH2 [reference compound]	0	20			
IIKIIK [reference compound]	0	4			
